Test results as given in patent US10231954B2, “Neurodegenerative therapies” (LYTIX BIOPHARMA AS, priority 2014, dated 2019).

Key:
Type in all cases: biochemical
ERK1 = ERK1 (Homo sapiens, UniProt P27361); test: Kinase profiling ERK1; settings: for residual kinase activity, ERK1: 100 micromolar inhibitor concentration, 100 is no change
Source text: (§1) Any value less that 25 is considered to be highly significant inhibition.

JNK3 = JNK3 (Homo sapiens, UniProt P53779); test: Kinase profiling JNK3; settings: for residual kinase activity, JNK3: 100 micromolar inhibitor concentration, 100 is no change
Source text: as §1

RSK1 = RSK1 (Homo sapiens, UniProt Q15418); test: Kinase profiling RSK1; settings: for residual kinase activity, RSK1: 100 micromolar inhibitor concentration, 100 is no change
Source text: as §1

RSK2 = RSK2 (Homo sapiens, UniProt P51812); test: Kinase profiling RSK2; settings: for residual kinase activity, RSK2: 100 micromolar inhibitor concentration, 100 is no change
Source text: as §1

PKD1 = target: T1, PKD1 (Homo sapiens, UniProt Q15139); test: Kinase profiling PKD1; settings: for residual kinase activity, PKD1: 100 micromolar inhibitor concentration, 100 is no change
T1 sequence (Q15139 1-912): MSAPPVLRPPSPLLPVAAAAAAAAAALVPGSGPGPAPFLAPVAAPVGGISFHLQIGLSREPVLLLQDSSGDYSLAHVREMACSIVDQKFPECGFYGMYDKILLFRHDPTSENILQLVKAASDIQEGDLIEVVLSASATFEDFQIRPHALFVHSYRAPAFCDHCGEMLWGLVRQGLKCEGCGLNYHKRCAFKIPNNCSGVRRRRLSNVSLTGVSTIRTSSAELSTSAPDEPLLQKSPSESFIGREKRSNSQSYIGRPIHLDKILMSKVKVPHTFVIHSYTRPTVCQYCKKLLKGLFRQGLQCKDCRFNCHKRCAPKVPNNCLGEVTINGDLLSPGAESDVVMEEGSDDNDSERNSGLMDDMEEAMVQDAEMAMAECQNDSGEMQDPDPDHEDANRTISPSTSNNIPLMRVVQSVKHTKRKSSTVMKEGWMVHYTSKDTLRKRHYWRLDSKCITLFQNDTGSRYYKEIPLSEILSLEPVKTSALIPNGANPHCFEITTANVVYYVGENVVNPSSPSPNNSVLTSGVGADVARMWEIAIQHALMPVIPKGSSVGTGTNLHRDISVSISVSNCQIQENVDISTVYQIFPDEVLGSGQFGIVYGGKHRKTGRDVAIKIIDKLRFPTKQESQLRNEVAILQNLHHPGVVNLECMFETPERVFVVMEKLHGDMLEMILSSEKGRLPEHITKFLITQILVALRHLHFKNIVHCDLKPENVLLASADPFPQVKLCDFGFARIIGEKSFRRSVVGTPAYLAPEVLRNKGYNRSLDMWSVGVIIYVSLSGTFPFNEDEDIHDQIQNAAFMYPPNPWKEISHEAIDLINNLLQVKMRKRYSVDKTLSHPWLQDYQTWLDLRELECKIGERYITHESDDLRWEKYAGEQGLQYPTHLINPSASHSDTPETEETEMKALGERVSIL
Source text: as §1

CHK2 = CHK2 (Homo sapiens, UniProt O96017); test: Kinase profiling CHK2; settings: for residual kinase activity, CHK2: 100 micromolar inhibitor concentration, 100 is no change
Source text: as §1

LKB1 = target: T2, LKB1 (Homo sapiens, UniProt Q15831); test: Kinase profiling LKB1; settings: for residual kinase activity, LKB1: 100 micromolar inhibitor concentration, 100 is no change
T2 sequence (Q15831 1-433): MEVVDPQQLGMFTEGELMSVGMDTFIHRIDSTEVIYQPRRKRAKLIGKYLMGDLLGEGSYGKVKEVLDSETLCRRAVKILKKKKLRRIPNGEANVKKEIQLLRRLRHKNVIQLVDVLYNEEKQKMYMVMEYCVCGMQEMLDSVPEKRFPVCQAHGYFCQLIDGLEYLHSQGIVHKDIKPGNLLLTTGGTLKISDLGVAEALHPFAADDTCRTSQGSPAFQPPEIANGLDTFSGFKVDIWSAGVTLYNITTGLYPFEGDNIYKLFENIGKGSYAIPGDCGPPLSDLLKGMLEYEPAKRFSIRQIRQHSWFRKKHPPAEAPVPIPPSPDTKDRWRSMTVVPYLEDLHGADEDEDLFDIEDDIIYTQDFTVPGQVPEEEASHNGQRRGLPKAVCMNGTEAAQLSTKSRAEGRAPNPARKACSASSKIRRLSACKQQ
T2 sequence (Q7RTN6 1-431 partner): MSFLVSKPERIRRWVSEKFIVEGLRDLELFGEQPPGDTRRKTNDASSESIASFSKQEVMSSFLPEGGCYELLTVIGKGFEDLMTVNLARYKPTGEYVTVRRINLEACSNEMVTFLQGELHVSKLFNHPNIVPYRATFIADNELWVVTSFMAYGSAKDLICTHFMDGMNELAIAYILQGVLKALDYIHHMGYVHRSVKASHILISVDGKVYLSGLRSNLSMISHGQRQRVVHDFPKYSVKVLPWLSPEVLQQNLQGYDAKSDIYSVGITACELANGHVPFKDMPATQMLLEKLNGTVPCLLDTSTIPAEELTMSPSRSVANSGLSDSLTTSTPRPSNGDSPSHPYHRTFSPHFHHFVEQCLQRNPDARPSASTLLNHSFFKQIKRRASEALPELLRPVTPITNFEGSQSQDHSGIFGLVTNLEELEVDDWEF
T2 sequence (Q9Y376 1-341 partner): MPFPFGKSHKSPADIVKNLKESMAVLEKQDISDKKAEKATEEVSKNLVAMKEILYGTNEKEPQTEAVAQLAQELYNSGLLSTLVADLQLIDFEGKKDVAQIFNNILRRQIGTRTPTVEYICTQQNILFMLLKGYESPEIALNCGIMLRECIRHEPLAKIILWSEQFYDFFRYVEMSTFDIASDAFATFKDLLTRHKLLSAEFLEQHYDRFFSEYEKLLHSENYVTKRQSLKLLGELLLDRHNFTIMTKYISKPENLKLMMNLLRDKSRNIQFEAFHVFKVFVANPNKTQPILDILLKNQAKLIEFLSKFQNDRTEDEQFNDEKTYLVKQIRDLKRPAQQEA
Source text: as §1

CK2 = test: Kinase profiling CK2
Source text: as §1

EF2K = EF2K (Homo sapiens, UniProt O00418); test: Kinase profiling EF2K; settings: for residual kinase activity, EF2K: 100 micromolar inhibitor concentration, 100 is no change
Source text: as §1

MLK1 = MLK1 (Homo sapiens, UniProt P80192); test: Kinase profiling MLK1; settings: for residual kinase activity, MLK1: 100 micromolar inhibitor concentration, 100 is no change
Source text: as §1

RIPK2 = RIPK2 (Homo sapiens, UniProt O43353); test: Kinase profiling RIPK2; settings: for residual kinase activity, RIPK2: 100 micromolar inhibitor concentration, 100 is no change
Source text: as §1

BTK = BTK (Homo sapiens, UniProt Q06187); test: Kinase profiling BTK; settings: for residual kinase activity, BTK: 100 micromolar inhibitor concentration, 100 is no change
Source text: as §1

TIE2 = TIE2 (Homo sapiens, UniProt Q02763); test: Kinase profiling TIE2; settings: for residual kinase activity, TIE2: 100 micromolar inhibitor concentration, 100 is no change
Source text: as §1

EPH-A2 = EPH-A2 (Homo sapiens, UniProt P29317); test: Kinase profiling EPH-A2; settings: for residual kinase activity, EPH-A2: 100 micromolar inhibitor concentration, 100 is no change
Source text: as §1

[1] = 100 micromolar inhibitor concentration, 100 is no change

Chain of JNK3 (P53779 whole entry, species assumed): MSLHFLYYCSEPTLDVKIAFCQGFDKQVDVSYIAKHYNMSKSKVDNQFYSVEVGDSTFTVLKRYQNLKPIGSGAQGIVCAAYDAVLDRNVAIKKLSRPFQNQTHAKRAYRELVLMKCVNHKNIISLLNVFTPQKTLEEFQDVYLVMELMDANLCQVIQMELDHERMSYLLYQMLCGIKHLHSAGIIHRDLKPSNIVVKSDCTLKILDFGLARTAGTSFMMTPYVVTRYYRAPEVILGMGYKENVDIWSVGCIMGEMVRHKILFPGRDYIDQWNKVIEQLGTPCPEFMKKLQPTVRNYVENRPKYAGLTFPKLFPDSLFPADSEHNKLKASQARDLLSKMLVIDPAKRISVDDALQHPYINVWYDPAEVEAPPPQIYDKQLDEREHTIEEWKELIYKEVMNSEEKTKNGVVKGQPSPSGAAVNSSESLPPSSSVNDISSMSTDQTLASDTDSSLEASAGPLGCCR
Chain of TIE2 (Q02763 23-1124, species assumed): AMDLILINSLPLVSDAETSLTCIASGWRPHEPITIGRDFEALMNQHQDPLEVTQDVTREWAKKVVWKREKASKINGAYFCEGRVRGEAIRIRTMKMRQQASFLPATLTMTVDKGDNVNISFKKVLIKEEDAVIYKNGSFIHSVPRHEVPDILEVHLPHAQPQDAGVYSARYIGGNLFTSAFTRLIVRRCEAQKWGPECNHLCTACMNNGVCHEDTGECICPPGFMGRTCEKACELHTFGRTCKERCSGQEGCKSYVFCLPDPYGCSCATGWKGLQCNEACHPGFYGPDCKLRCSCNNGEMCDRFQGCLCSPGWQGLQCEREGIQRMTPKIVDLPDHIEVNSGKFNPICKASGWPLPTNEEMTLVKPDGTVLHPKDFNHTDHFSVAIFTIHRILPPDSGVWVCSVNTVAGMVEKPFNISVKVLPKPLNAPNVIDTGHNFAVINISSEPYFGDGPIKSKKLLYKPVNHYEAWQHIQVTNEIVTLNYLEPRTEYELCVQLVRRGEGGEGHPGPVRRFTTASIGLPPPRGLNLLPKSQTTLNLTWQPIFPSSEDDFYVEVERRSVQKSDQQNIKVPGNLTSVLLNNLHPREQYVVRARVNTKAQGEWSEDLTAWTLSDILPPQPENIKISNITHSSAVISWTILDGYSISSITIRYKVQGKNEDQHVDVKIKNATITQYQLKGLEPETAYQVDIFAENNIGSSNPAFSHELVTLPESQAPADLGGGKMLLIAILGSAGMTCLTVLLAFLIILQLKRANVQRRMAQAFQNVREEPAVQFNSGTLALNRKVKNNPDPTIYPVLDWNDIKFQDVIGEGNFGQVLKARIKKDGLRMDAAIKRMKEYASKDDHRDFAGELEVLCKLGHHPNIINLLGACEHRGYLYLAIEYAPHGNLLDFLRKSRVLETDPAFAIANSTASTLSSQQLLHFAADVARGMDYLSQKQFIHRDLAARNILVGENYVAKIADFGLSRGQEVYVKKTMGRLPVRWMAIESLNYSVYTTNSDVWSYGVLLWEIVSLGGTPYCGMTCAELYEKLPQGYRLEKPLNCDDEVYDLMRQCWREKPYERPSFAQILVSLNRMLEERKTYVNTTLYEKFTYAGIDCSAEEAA
Chain of MLK1 (P80192 whole entry, species assumed): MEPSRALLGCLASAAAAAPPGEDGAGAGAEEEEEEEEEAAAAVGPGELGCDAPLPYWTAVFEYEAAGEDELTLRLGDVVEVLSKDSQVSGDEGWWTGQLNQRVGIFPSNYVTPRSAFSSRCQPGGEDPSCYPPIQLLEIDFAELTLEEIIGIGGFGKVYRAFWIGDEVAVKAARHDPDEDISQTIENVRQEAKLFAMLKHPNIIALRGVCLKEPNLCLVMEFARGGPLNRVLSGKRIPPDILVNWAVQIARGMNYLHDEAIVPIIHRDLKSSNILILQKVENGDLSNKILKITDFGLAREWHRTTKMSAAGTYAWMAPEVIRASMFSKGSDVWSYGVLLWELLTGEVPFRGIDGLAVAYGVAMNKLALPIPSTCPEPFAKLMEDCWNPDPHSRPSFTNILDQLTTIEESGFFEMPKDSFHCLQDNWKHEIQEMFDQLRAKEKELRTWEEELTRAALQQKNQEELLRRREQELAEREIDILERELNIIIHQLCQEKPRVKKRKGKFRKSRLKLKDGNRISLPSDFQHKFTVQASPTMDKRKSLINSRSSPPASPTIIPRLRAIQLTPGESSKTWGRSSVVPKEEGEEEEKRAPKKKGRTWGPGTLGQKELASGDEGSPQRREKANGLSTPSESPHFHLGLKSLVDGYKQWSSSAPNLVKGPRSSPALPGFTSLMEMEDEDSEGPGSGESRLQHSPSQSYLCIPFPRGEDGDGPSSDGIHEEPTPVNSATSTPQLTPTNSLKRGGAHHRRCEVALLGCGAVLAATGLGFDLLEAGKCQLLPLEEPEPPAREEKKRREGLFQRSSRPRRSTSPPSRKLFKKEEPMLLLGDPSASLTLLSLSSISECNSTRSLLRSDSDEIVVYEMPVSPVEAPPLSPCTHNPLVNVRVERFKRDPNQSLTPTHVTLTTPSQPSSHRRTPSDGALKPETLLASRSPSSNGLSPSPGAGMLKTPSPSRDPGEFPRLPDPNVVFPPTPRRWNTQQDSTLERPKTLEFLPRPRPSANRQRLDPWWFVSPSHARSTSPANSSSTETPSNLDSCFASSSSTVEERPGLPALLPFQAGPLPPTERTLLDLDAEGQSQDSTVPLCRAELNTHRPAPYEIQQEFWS
Chain of CHK2 (O96017 whole entry, species assumed): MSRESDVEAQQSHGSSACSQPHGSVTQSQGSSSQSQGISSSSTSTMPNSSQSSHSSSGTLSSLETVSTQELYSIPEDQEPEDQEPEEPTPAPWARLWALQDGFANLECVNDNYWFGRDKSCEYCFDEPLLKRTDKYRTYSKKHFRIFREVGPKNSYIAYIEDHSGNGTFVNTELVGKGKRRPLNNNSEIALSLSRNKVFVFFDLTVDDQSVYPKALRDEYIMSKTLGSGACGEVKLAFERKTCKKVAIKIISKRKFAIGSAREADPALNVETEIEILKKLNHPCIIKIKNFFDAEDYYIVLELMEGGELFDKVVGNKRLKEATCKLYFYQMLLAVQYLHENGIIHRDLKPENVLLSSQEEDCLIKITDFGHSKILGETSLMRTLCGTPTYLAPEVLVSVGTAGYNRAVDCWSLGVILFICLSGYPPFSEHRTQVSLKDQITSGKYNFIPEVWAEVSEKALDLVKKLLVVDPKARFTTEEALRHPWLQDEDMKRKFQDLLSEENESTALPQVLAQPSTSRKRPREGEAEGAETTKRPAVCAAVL
Chain of RSK2 (P51812 whole entry, species assumed): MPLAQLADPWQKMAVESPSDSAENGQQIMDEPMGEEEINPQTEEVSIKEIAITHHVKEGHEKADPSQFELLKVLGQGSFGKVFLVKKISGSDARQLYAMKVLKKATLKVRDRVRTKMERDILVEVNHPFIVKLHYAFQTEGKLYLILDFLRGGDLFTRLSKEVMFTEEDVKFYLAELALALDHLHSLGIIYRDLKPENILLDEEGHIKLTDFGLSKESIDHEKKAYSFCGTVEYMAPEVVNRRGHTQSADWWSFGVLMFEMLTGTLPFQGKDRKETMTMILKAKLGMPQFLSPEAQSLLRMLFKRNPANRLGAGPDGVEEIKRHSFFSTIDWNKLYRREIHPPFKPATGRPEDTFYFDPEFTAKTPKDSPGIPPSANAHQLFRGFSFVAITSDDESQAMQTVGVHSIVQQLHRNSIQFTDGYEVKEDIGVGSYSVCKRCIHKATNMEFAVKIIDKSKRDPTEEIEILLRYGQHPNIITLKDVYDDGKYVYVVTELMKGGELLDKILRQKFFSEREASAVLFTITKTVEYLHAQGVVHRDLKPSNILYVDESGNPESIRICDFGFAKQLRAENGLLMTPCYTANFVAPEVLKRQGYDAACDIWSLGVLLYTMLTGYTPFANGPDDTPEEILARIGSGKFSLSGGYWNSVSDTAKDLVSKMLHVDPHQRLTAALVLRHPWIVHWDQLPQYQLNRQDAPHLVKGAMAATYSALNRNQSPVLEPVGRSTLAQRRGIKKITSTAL
Chain of RSK1 (Q15418 whole entry, species assumed): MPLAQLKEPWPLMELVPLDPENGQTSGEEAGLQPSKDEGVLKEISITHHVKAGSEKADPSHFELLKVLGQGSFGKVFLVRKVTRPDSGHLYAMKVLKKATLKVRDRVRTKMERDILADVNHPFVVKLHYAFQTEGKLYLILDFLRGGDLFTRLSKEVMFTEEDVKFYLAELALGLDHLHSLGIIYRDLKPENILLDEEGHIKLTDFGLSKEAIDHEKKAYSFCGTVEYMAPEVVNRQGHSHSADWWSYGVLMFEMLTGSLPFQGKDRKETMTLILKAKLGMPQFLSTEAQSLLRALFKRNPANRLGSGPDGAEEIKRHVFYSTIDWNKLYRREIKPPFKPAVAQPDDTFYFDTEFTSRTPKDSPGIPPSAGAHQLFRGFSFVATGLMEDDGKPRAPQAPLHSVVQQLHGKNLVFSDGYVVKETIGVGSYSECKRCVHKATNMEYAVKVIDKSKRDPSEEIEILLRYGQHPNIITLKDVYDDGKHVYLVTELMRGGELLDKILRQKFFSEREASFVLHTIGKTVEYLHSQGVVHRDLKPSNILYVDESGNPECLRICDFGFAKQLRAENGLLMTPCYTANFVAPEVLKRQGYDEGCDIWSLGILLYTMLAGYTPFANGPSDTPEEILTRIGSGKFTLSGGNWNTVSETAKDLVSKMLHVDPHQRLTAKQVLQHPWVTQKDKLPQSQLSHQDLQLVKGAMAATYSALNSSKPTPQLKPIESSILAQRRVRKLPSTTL
Chain of ERK1 (P27361 whole entry, species assumed): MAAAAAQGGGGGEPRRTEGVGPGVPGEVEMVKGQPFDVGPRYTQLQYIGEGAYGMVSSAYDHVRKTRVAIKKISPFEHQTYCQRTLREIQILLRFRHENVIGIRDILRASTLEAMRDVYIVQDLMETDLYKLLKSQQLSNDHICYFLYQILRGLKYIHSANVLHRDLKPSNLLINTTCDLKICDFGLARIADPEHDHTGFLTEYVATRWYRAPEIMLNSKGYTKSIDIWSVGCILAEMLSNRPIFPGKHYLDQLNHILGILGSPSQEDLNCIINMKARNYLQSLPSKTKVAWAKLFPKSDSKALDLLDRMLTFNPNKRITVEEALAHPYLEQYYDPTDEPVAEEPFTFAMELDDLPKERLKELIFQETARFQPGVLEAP

SMILES | residual kinase activity, ERK1 (ERK1) | residual kinase activity, JNK3 (JNK3) | residual kinase activity, RSK1 (RSK1) | residual kinase activity, RSK2 (RSK2) | residual kinase activity, PKD1 (PKD1) | residual kinase activity, CHK2 (CHK2) | residual kinase activity, LKB1 (LKB1) | residual kinase activity, CK2 (CK2; [1]) | residual kinase activity, EF2K (EF2K) | residual kinase activity, MLK1 (MLK1) | residual kinase activity, RIPK2 (RIPK2) | residual kinase activity, BTK (BTK) | residual kinase activity, TIE2 (TIE2) | residual kinase activity, EPH-A2 (EPH-A2) | further results
CC(=O)Nc1cccc(NC(=O)c2nc3ccc(O)cc3s2)c1 [Compound 03-07, N-(3-acetamidophenyl)-6-hydroxybenzo[d]thiazole-2-carboxamide] | – | – | – | – | – | – | – | – | – | – | – | – | – | – | remaining activity at 100 µM (ERK1; 100 micromolar inhibitor, 100 = no change, read-out: residual kinase activity, ERK1): 102%; remaining activity at 100 µM (JNK3; 100 micromolar inhibitor, 100 = no change, read-out: residual kinase activity, JNK3): 50%; remaining activity at 100 µM (RSK1; 100 micromolar inhibitor, 100 = no change, read-out: residual kinase activity, RSK1): 48%; remaining activity at 100 µM (RSK2; 100 micromolar inhibitor, 100 = no change, read-out: residual kinase activity, RSK2): 71%; remaining activity at 100 µM (PKD1; 100 micromolar inhibitor, 100 = no change, read-out: residual kinase activity, PKD1): 61%; remaining activity at 100 µM (CHK2; 100 micromolar inhibitor, 100 = no change, read-out: residual kinase activity, CHK2): 23%; remaining activity at 100 µM (LKB1; 100 micromolar inhibitor, 100 = no change, read-out: residual kinase activity, LKB1): 83%; residual kinase activity, CK2 (CK2; 100 micromolar inhibitor, 100 = no change): 35; remaining activity at 100 µM (EF2K; 100 micromolar inhibitor, 100 = no change, read-out: residual kinase activity, EF2K): 91%; remaining activity at 100 µM (MLK1; 100 micromolar inhibitor, 100 = no change, read-out: residual kinase activity, MLK1): 26%; remaining activity at 100 µM (RIPK2; 100 micromolar inhibitor, 100 = no change, read-out: residual kinase activity, RIPK2): 18%; remaining activity at 100 µM (BTK; 100 micromolar inhibitor, 100 = no change, read-out: residual kinase activity, BTK): 32%; remaining activity at 100 µM (TIE2; 100 micromolar inhibitor, 100 = no change, read-out: residual kinase activity, TIE2): 78%; remaining activity at 100 µM (EPH-A2; 100 micromolar inhibitor, 100 = no change, read-out: residual kinase activity, EPH-A2): 88%
O=C(Nc1nc2cc(O)ccc2s1)c1ccncc1 [Compound 03-11] | 88 | 77 | 83 | 71 | 74 | 93 | 87 | 68 | 79 | 71 | 60 | 107 | 84 | 84 | –
O=C(Nc1nc2ccc(O)cc2s1)c1ccccn1 [Compound 03-12] | 74 | 70 | 67 | 53 | 70 | 23 | 64 | 57 | 69 | 31 | 29 | 71 | 76 | 85 | –
